Patent US9096591B2, “Tetracyclic compounds” (Medivation Technologies, Inc., priority 2007, dated 2015)
Read-outs that look alike come from different tables or passages of the source.

Key:
[1] = molecular target: T1, human recombinant histamine H1 receptor (Homo sapiens, UniProt P35367); assay: Histamine H1 radioligand binding ([3H]Pyrilamine)
T1 construct: expressed in transfected cells; host or cells: CHO cells
Outline: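 Receptor expressed in CHO cells, assayed in 50 mM Tris-HCl pH 7.4 with 2 mM MgCl2, 100 mM NaCl, 250 mM sucrose. Compounds tested at 1 μM in 1% DMSO; non-specific binding set with 1 μM pyrilamine. Filter-bound radioactivity counted; values are percent inhibition of specific binding.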

[2] = molecular target: T2, human recombinant adrenergic α1D receptor (Homo sapiens, UniProt P25100); assay: Adrenergic α1D radioligand binding ([3H]Prozosin); set-up: Inhibition of ligand binding, Adren. alpha1D: concentration or dose not given beside the values; conditions: percent inhibition of specific binding
T2 construct: expressed in transfected cells; host or cells: HEK-293 cells
T2 sequence (P25100 1-572): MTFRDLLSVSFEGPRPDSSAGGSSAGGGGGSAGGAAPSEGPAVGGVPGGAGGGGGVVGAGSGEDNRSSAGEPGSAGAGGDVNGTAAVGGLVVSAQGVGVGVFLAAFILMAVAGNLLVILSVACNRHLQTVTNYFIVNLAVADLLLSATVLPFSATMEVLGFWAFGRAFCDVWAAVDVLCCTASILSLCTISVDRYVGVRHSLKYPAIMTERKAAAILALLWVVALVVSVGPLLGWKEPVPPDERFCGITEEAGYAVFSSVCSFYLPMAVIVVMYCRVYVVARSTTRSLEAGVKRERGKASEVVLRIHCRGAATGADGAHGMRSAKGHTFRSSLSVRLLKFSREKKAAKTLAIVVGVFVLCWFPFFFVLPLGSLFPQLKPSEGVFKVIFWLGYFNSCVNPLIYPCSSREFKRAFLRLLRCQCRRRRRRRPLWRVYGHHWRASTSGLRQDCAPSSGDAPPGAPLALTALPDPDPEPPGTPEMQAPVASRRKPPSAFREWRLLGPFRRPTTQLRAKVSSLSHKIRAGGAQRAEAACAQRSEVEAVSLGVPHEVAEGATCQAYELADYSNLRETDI
Protocol: Compounds of invention were incubated with 0.6 nM [^3H]Prozosin for 60 minutes at 25° C. Non-specific binding was estimated in the presence of 10 μM phentolamine. Receptor proteins were filtered and washed, the filters were then counted to determine [^3H]Prozosin specifically bound. […] Biochemical assay results are presented as the percent inhibition of specific binding in Table 6.

[3] = molecular target: T3, human recombinant histamine H2 receptor (Homo sapiens, UniProt P25021); assay: Histamine H2 radioligand binding ([125I]Aminopotentidine)
T3 construct: expressed in transfected cells; host or cells: CHO-K1 cells
T3 sequence (P25021 whole entry): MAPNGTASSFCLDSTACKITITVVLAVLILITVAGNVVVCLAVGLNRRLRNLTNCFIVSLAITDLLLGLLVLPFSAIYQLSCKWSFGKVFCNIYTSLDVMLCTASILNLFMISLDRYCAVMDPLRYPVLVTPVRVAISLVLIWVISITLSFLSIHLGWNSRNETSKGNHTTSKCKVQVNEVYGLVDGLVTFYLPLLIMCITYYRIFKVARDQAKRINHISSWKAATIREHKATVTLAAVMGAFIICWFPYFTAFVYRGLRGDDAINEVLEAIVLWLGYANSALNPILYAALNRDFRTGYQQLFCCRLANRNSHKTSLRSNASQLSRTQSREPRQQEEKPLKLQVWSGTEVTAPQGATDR
Outline: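 Test compounds were assessed for their ability to displace radioligand from the human recombinant histamine H2 receptor. Non-specific binding was determined in the presence of 3 μM Tiotidine, and results were expressed as percent inhibition of specific binding, with 1% DMSO serving as the vehicle.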

[4] = molecular target: T4, human recombinant adrenergic α2B receptor (Homo sapiens, UniProt P18089); assay: Adrenergic α2B radioligand binding ([3H]Rauwolscine); set-up: Inhibition of ligand binding, Adren. alpha2B: concentration or dose not given beside the values; conditions: percent inhibition of specific binding
T4 construct: expressed in transfected cells; host or cells: CHO-K1 cells
T4 sequence (P18089 1-450): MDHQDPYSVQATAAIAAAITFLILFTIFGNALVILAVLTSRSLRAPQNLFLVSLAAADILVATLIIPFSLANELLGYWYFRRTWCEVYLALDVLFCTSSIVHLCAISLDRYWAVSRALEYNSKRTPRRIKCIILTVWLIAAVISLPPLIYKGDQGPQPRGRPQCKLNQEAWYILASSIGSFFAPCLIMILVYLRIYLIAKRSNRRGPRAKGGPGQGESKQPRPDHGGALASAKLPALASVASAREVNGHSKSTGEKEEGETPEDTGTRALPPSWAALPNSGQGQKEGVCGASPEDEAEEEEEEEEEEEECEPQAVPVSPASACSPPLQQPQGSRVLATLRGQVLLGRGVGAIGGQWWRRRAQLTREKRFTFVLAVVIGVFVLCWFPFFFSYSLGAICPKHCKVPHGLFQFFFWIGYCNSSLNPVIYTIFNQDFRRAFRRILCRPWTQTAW
Outline: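 Membranes from CHO-K1 cells expressing the receptor, in 50 mM Tris-HCl pH 7.4 with 12.5 mM MgCl2, 1 mM EDTA, 0.2% BSA, incubated with compounds and 2.5 nM [3H]Rauwolscine for 60 minutes at 25 °C.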

[5] = molecular target: T5, human recombinant serotonin (5-Hydroxytryptamine) 5-HT2A receptor (Homo sapiens, UniProt P28223); assay: Serotonin 5-HT2A radioligand binding ([3H]Ketanserin); conditions: percent inhibition of specific binding
T5 construct: expressed in transfected cells; host or cells: CHO-K1 cells
T5 sequence (P28223 whole entry): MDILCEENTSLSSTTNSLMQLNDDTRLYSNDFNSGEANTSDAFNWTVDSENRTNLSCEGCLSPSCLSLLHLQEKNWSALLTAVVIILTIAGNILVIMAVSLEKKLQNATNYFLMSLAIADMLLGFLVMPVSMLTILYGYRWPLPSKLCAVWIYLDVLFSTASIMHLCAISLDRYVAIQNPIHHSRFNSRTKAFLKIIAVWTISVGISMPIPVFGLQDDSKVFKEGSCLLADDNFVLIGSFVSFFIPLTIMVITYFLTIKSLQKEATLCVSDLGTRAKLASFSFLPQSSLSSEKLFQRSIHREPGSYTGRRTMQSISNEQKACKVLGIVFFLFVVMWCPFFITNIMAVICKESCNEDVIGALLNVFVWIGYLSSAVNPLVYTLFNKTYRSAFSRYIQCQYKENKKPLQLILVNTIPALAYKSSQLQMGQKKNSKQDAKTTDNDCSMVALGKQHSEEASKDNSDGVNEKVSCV
Protocol: Compounds of the invention were incubated with 0.5 nM [^3H]Ketanserin for 60 minutes at 25° C. Non-specific binding was estimated in the presence of 1 μM Mianserin. Receptor proteins were filtered and washed, the filters were then counted to determine [^3H]Ketanserin specifically bound. […] Biochemical assay results are presented as the percent inhibition of specific binding in Table 6.

[6] = percent inhibition of specific binding, screened at 1 μM, read-out: Inhibition of ligand binding, Hist. H1
[7] = percent inhibition of specific binding, screened at 1 μM, read-out: Inhibition of ligand binding, Hist. H2
[8] = read-out: Inhibition of ligand binding, Hist. H1
[9] = read-out: Inhibition of ligand binding, Hist. H2

T1 sequence (P35367 whole entry): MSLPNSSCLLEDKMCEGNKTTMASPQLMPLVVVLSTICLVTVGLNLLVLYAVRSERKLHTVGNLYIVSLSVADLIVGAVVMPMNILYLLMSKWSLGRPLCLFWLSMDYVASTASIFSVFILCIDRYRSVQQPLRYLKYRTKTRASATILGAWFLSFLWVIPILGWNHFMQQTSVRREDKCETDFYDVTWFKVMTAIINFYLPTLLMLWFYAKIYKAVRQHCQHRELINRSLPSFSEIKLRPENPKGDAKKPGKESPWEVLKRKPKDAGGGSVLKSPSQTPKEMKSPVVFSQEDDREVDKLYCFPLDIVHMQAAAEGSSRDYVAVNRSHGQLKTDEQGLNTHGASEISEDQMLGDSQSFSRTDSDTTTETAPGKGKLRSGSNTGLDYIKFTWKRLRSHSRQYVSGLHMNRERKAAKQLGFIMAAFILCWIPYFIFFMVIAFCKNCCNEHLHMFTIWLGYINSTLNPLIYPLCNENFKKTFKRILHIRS

inhibition at 0.3 µM ([3]; 0.3 μM compound, 0.1 nM [125I]Aminopotentidine, read-out: Histamine Binding H2, percent inhibition of specific binding) [%] | inhibition at 1 µM ([3]; 1 μM compound, 0.1 nM [125I]Aminopotentidine, read-out: Histamine Binding H2, percent inhibition of specific binding) [%] | Compound | inhibition at 1 µM [1, 6] [%] | Inhibition of ligand binding, Adren. alpha1D [2] [%] | inhibition at 1 µM [3, 7] [%] | Inhibition of ligand binding, Adren. alpha2B [4] [%] | Inhibition of ligand binding, Ser. 5-HT2A [5] [%] | inhibition at 1 µM [1, 8] [%] | inhibition at 1 µM [3, 9] [%] | inhibition at 1 µM ([1]; read-out: Histamine Binding H1, percent inhibition of specific binding) [%] | inhibition at 1 µM ([3]; read-out: Histamine Binding H2, percent inhibition of specific binding) [%]
40 | 58 | Cc1ccc(C(O)Cn2c3c(c4cc(C)ccc42)CN(C)CC3)cc1 (racemic) [Compound 28, racemic-2-(1,2,3,4-tetrahydro-2,8-dimethylpyrido[4,3-b]indol-5-yl)-1-p-tolylethanol] | 85 | 89 | 84 | – | – | – | – | – | –
– | – | Cc1ccc(CCn2c3c(c4cc(Cl)ccc42)CN(C)CC3)cc1 [Compound 43] | 110 | 98 | 100 | 108 | 99 | – | – | – | –
– | – | CN1CCc2c(c3cc(Cl)ccc3n2CCc2ccc(Cl)cc2)C1 [Compound 45, 5-(4-chlorophenethyl)-8-chloro-2,3,4,5-tetrahydro-2-methyl-1H-pyrido[4,3-b]indole] | 103 | 92 | 98 | 102 | 100 | – | – | – | –
– | – | Cc1ccc(CCn2c3c(c4cc(C(F)(F)F)ccc42)CN(C)CC3)cc1 [Compound 47] | 81 | 81 | 78 | 101 | 92 | – | – | – | –
– | – | Cc1ccc2c(c1)c1c(n2CCc2ccc(C)nc2)CCN(C2CC2)C1 [Compound 51] | 94 | 22 | 17 | 10 | 0 | – | – | – | –
– | – | Cc1ccc(CCn2c3c(c4cc(C(F)(F)F)ccc42)CN(C)CC3)cn1 [Compound 53] | 43 | 13 | 4 | 34 | −1 | – | – | – | –
– | – | CN1CCc2c(c3cc(C(F)(F)F)ccc3n2CCc2ccccc2)C1 [Compound 80, 8-(trifluoromethyl)-2,3,4,5-tetrahydro-2-methyl-5-phenethyl-1H-pyrido[4,3-b]indole] | 89 | 75 | 71 | 105 | 88 | – | – | – | –
– | – | CN1CCc2c(c3c(Cl)cccc3n2CCc2ccccc2)C1 [Compound 81] | 94 | 47 | 57 | 90 | 99 | – | – | – | –
– | – | CN1CCc2c(c3ccc(Cl)cc3n2CCc2ccccc2)C1 [Compound 82] | 99 | 64 | 99 | 99 | 99 | – | – | – | –
– | – | CN1CCc2c(c3cccc(Cl)c3n2CCc2ccccc2)C1 [Compound 83] | 97 | 92 | 97 | 96 | 100 | – | – | – | –
– | – | CN1CCc2c(c3cc(Cl)ccc3n2CCc2ccc(F)cc2)C1 [Compound 162, 5-(4-fluorophenethyl)-8-chloro-2,3,4,5-tetrahydro-2-methyl-1H-pyrido[4,3-b]indole] | 100 | 90 | 94 | 112 | 98 | – | – | – | –
– | – | CN1CCc2c(c3cc(Cl)ccc3n2CCC2CCCCC2)C1 [Compound 164, 8-chloro-5-(2-cyclohexylethyl)-2,3,4,5-tetrahydro-2-methyl-1H-pyrido[4,3-b]indole] | 101 | 32 | 84 | 93 | 91 | – | – | – | –
– | – | CN1CCc2c(c3cc(Cl)ccc3n2CCN2CCOCC2)C1 [Compound 186, 8-chloro-2,3,4,5-tetrahydro-2-methyl-5-(2-morpholinoethyl)-1H-pyrido[4,3-b]indole] | 97 | 41 | 25 | 79 | 84 | – | – | – | –
– | – | CN1CCc2c(c3c(Cl)cccc3n2CCC2CCCCC2)C1 [Compound 187, 9-chloro-5-(2-cyclohexylethyl)-2,3,4,5-tetrahydro-2-methyl-1H-pyrido[4,3-b]indole] | 64 | 15 | 69 | 57 | 84 | – | – | – | –
– | – | CN1CCc2c(c3ccc(Cl)cc3n2CCC2CCCCC2)C1 [Compound 188, 7-chloro-5-(2-cyclohexylethyl)-2,3,4,5-tetrahydro-2-methyl-1H-pyrido[4,3-b]indole] | 97 | 8 | 72 | 65 | 58 | – | – | – | –
– | – | Cc1ccc2c(c1)c1c(n2CCc2ccc(C)nc2)CC(=O)N(C)C1 [Compound 195, 1,2-dihydro-2,8-dimethyl-5-(2-(6-methylpyridin-3-yl)ethyl)-4H-pyrido[4,3-b]indol-3(5H)-one] | 3 | 15 | 22 | 7 | −4 | – | – | – | –
– | – | Cc1ccc2c(c1)c1c(n2CCc2ccccc2)CC(O)N(C)C1=O (centres unmarked) [Compound 215, 3,4-dihydro-3-hydroxy-2,8-dimethyl-5-phenethyl-2H-pyrido[4,3-b]indol-1(5H)-one] | – | −5 | – | −4 | −6 | -2 | 16 | – | –
– | – | Cc1ccc2c(c1)c1c(n2CCc2ccc(C)nc2)CCN(C)C1=O [Compound 216] | – | −7 | – | 3 | 12 | 6 | 11 | 6 | 11
